Test results published in the supplement of paper PMC11061612.

Key:
Assay in all cases: Bliss excess, mean over the matrix (fraction); higher = more synergy
[1] = test system: TT2609-C02 (Thyroid Gland Carcinoma)
In short: (§1)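 Bliss excess equals the observed combination effect minus the expected value EA + EB − EA·EB, where EA and EB are the effects of each agent alone. Combination Emax is the second-highest inhibition within the matrix. Inhibition was scaled from CellTiter-Glo 2.0 luminescence, with 0 set by vehicle wells and 1 by blank wells, after 72 hours of two-drug dosing of cells plated in 1536-well plates.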

[2] = test system: HCC1954 (Breast Carcinoma)
In short: as §1

[3] = test system: VCaP (Prostate Carcinoma)
In short: as §1

[4] = test system: NCI-H2066 (Squamous Cell Lung Carcinoma)
In short: as §1

[5] = test system: A498 (Kidney Carcinoma)
In short: as §1

[6] = test system: SK-MES-1 (Squamous Cell Lung Carcinoma)
In short: as §1

[7] = test system: NCI-H2591 (Mesothelioma)
In short: as §1

[8] = test system: 8-MG-BA (Glioblastoma)
In short: as §1

[9] = test system: SK-MG-1 (Low Grade Glioma)
In short: as §1

[10] = test system: GI-ME-N (Neuroblastoma)
In short: as §1

[11] = test system: PANC-10-05 (Pancreatic Carcinoma)
In short: as §1

[12] = test system: IGR-37 (Melanoma)
In short: as §1

[13] = test system: CAL-29 (Bladder Carcinoma)
In short: as §1

[14] = test system: TT (Thyroid Gland Carcinoma)
In short: as §1

[15] = test system: NCI-H64 (Small Cell Lung Carcinoma)
In short: as §1

[16] = test system: LN-405 (Glioblastoma)
In short: as §1

[17] = test system: A3-KAW (B-Cell Non-Hodgkin's Lymphoma)
In short: as §1

[18] = test system: A549 (Lung Adenocarcinoma)
In short: as §1

[19] = test system: JSC-1 (B-Cell Non-Hodgkin's Lymphoma)
In short: as §1

[20] = test system: ARH-77 (Non-Cancerous)
In short: as §1

CC1(C)CCC(CN2CCN(c3ccc(C(=O)NS(=O)(=O)c4ccc(NCC5CCOCC5)c([N+](=O)[O-])c4)c(Oc4cnc5[nH]ccc5c4)c3)CC2)=C(c2ccc(Cl)cc2)C1 [Venetoclax] + C=CCn1c(=O)c2cnc(Nc3ccc(N4CCN(C)CC4)cc3)nc2n1-c1cccc(C(C)(C)O)n1 [AZD1775] (first compound max 1 µM, partner max 1 µM)
Bliss excess [1]: -0.0696 | Bliss excess [2]: -0.0366 | Bliss excess [3]: -0.0013 | Bliss excess [4]: -0.0598 | Bliss excess [5]: -0.0031 | Bliss excess [6]: -0.0237 | Bliss excess [7]: -0.0497 | Bliss excess [8]: -0.0307 | Bliss excess [9]: -0.0369 | Bliss excess [10]: -0.0689 | Bliss excess [11]: -0.0488 | Bliss excess [12]: 0.0267 | Bliss excess [13]: -0.0167 | Bliss excess [14]: 0.0252 | Bliss excess [15]: 0.0168 | Bliss excess [16]: 0.0151 | Bliss excess [17]: -0.0298 | Bliss excess [18]: -0.0366 | Bliss excess [19]: -0.0281 | Bliss excess [20]: 0.025

CC1(C)CCC(CN2CCN(c3ccc(C(=O)NS(=O)(=O)c4ccc(NCC5CCOCC5)c([N+](=O)[O-])c4)c(Oc4cnc5[nH]ccc5c4)c3)CC2)=C(c2ccc(Cl)cc2)C1 [Venetoclax] + CCN(CCO)CCCOc1ccc2c(Nc3cc(CC(=O)Nc4cccc(F)c4)[nH]n3)ncnc2c1 [AZD2811] (first compound max 1 µM, 7x7, partner max 1 µM)
Bliss excess [1]: -0.0276 | Bliss excess [2]: 0.0579 | Bliss excess [3]: 0.0436 | Bliss excess [4]: -0.0442 | Bliss excess [5]: -0.0503 | Bliss excess [6]: -0.0139 | Bliss excess [7]: -0.009 | Bliss excess [8]: 0.0065 | Bliss excess [9]: -0.0199 | Bliss excess [10]: -0.0202 | Bliss excess [11]: -0.0454 | Bliss excess [12]: -0.011 | Bliss excess [13]: 0.0361 | Bliss excess [14]: -0.0834 | Bliss excess [15]: 0.173 | Bliss excess [16]: 0.0185 | Bliss excess [17]: -0.0238 | Bliss excess [18]: -0.0668 | Bliss excess [19]: 0.0485 | Bliss excess [20]: 0.198

CC1(C)CCC(CN2CCN(c3ccc(C(=O)NS(=O)(=O)c4ccc(NCC5CCOCC5)c([N+](=O)[O-])c4)c(Oc4cnc5[nH]ccc5c4)c3)CC2)=C(c2ccc(Cl)cc2)C1 [Venetoclax] + CN(C)CCCOc1ccc(-c2ccc3ncc4c(c3c2)n(C2CCOCC2)c(=O)n4C)cn1 [AZD0156] (first compound max 1 µM, 7x7, partner max 1 µM)
Bliss excess [1]: -0.0351 | Bliss excess [2]: 0.0044 | Bliss excess [3]: 0.032 | Bliss excess [4]: -0.0439 | Bliss excess [5]: -0.029 | Bliss excess [6]: -0.0106 | Bliss excess [7]: -0.0202 | Bliss excess [8]: -0.0171 | Bliss excess [9]: -0.0527 | Bliss excess [10]: -0.041 | Bliss excess [11]: -0.079 | Bliss excess [12]: -0.0039 | Bliss excess [13]: -0.0219 | Bliss excess [14]: -0.13 | Bliss excess [15]: -0.0149 | Bliss excess [16]: -0.0256 | Bliss excess [17]: -0.0485 | Bliss excess [18]: -0.0586 | Bliss excess [19]: 0.0102 | Bliss excess [20]: 0.0357

CC1(C)CCC(CN2CCN(c3ccc(C(=O)NS(=O)(=O)c4ccc(NCC5CCOCC5)c([N+](=O)[O-])c4)c(Oc4cnc5[nH]ccc5c4)c3)CC2)=C(c2ccc(Cl)cc2)C1 [Venetoclax] + COc1cc(Nc2ncc3c(n2)-c2ccc(Cl)cc2C(c2c(F)cccc2OC)=NC3)ccc1C(=O)O [Alisertib] (first compound max 1 µM, 7x7, partner max 10 µM)
Bliss excess [1]: -0.0069 | Bliss excess [2]: 0.0356 | Bliss excess [3]: 0.0574 | Bliss excess [4]: 0.0077 | Bliss excess [5]: -0.0352 | Bliss excess [6]: -0.0201 | Bliss excess [7]: -0.066 | Bliss excess [8]: 0.0038 | Bliss excess [9]: -0.0126 | Bliss excess [10]: -0.094 | Bliss excess [11]: -0.0602 | Bliss excess [12]: -0.0148 | Bliss excess [13]: -0.0554 | Bliss excess [14]: -0.113 | Bliss excess [15]: 0.194 | Bliss excess [16]: -0.0196 | Bliss excess [17]: -0.156 | Bliss excess [18]: -0.0696 | Bliss excess [19]: 0.0504 | Bliss excess [20]: 0.278

CC1(C)CCC(CN2CCN(c3ccc(C(=O)NS(=O)(=O)c4ccc(NCC5CCOCC5)c([N+](=O)[O-])c4)c(Oc4cnc5[nH]ccc5c4)c3)CC2)=C(c2ccc(Cl)cc2)C1 [Venetoclax] + C[C@@H]1COCCN1C2=NC(=NC(=C2)C3(CC3)[S@](=N)(=O)C)C4=C5C=CNC5=NC=C4 [AZD6738] (first compound max 1 µM, 7x7, partner max 10 µM)
Bliss excess [1]: -0.0293 | Bliss excess [2]: 0.0328 | Bliss excess [3]: -0.0174 | Bliss excess [4]: -0.0098 | Bliss excess [5]: -0.0459 | Bliss excess [6]: -0.0215 | Bliss excess [7]: -0.0595 | Bliss excess [8]: -0.0603 | Bliss excess [9]: -0.0553 | Bliss excess [10]: -0.0353 | Bliss excess [11]: -0.113 | Bliss excess [12]: 0.0453 | Bliss excess [13]: -0.018 | Bliss excess [14]: -0.0387 | Bliss excess [15]: -0.0054 | Bliss excess [16]: -0.016 | Bliss excess [17]: 0.008 | Bliss excess [18]: -0.0465 | Bliss excess [19]: -0.0148 | Bliss excess [20]: 0.0642

CC1(C)CCC(CN2CCN(c3ccc(C(=O)NS(=O)(=O)c4ccc(NCC5CCOCC5)c([N+](=O)[O-])c4)c(Oc4cnc5[nH]ccc5c4)c3)CC2)=C(c2ccc(Cl)cc2)C1 [Venetoclax] + C[C@@H](Nc1cc(F)cc(F)c1)c1cc(C(=O)N(C)C)cc2c(=O)cc(N3CCOCC3)oc12 [AZD8186] (first compound max 1 µM, 7x7, partner max 3 µM)
Bliss excess [1]: -0.0251 | Bliss excess [2]: -0.0245 | Bliss excess [3]: -0.0242 | Bliss excess [4]: -0.0182 | Bliss excess [5]: -0.043 | Bliss excess [6]: 0.0051 | Bliss excess [7]: -0.0378 | Bliss excess [8]: 0.0025 | Bliss excess [9]: -0.0149 | Bliss excess [10]: -0.06 | Bliss excess [11]: -0.0542 | Bliss excess [12]: -0.0335 | Bliss excess [13]: -0.0341 | Bliss excess [14]: -0.0467 | Bliss excess [15]: 0.0288 | Bliss excess [16]: -0.0013 | Bliss excess [17]: -0.0047 | Bliss excess [18]: -0.0073 | Bliss excess [19]: -0.0218 | Bliss excess [20]: 0.0649

CC1(C)CCC(CN2CCN(c3ccc(C(=O)NS(=O)(=O)c4ccc(NCC5CCOCC5)c([N+](=O)[O-])c4)c(Oc4cnc5[nH]ccc5c4)c3)CC2)=C(c2ccc(Cl)cc2)C1 [Venetoclax] + Cc1cc2ncnn2cc1Nc1ncc2c(n1)n(C1CCOCC1)c(=O)n2C [AZD7648] (first compound max 1 µM, 7x7, partner max 10 µM)
Bliss excess [1]: -0.0014 | Bliss excess [2]: -0.0034 | Bliss excess [3]: -0.0248 | Bliss excess [4]: -0.0266 | Bliss excess [5]: -0.0755 | Bliss excess [6]: -0.0002 | Bliss excess [7]: -0.0384 | Bliss excess [8]: -0.0139 | Bliss excess [9]: -0.0351 | Bliss excess [10]: -0.0235 | Bliss excess [11]: -0.0721 | Bliss excess [12]: 0.0149 | Bliss excess [13]: -0.0222 | Bliss excess [14]: -0.0161 | Bliss excess [15]: -0.056 | Bliss excess [16]: 0.015 | Bliss excess [17]: 0.0185 | Bliss excess [18]: -0.0445 | Bliss excess [19]: -0.0103 | Bliss excess [20]: 0.0245

CC1(C)CCC(CN2CCN(c3ccc(C(=O)NS(=O)(=O)c4ccc(NCC5CCOCC5)c([N+](=O)[O-])c4)c(Oc4cnc5[nH]ccc5c4)c3)CC2)=C(c2ccc(Cl)cc2)C1 [Venetoclax] + Cn1cnc2c(F)c(Nc3ccc(Br)cc3Cl)c(C(=O)NOCCO)cc21 [Selumetinib] (first compound max 1 µM, 7x7, partner max 3 µM)
Bliss excess [1]: -0.0518 | Bliss excess [2]: 0.0025 | Bliss excess [3]: -0.0082 | Bliss excess [4]: -0.0074 | Bliss excess [5]: 0.024 | Bliss excess [6]: -0.0572 | Bliss excess [7]: -0.0169 | Bliss excess [8]: -0.0216 | Bliss excess [9]: -0.0062 | Bliss excess [10]: -0.0744 | Bliss excess [11]: -0.0386 | Bliss excess [12]: -0.0499 | Bliss excess [13]: -0.0137 | Bliss excess [14]: -0.0799 | Bliss excess [15]: -0.0243 | Bliss excess [16]: -0.0598 | Bliss excess [17]: 0.0127 | Bliss excess [18]: -0.0401 | Bliss excess [19]: -0.0184 | Bliss excess [20]: 0.0304
